Where a name gives a salt, the structure may show the parent alone. Read-outs that look alike come from different tables or passages of the source.
Key:
Assay type in all cases: biochemical
[1] = molecular target: T1, GST fusion human ERK2 protein (Homo sapiens, UniProt P28482); assay: ERK2 enzyme assay (1); conditions: read-out: ERK2 enzyme inhibitory activity (1)
T1 construct: purchased Carna Biosciences, Inc; host or cells: E. coli expression system
Procedure, shortened: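 IC50 derived from the proportion of phosphorylated 5-FAM peptide, separated from unphosphorylated peptide by microfluidic mobility shift. Compound was first preincubated 15 min at room temperature with 2.5 nmol/L kinase at pH 7.5, then 43.1 μmol/L ATP plus 4.25 μmol/L substrate reacted 120 min at 25 °C.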

human PI3Kα protein = molecular target: T2, human PI3Kα protein (Homo sapiens, UniProt P42336); assay: PI3Kα enzyme assay (ADP-Glo); conditions: read-out: PI3Kα enzyme inhibitory activity
T2 construct: purchased Carna Biosciences, Inc; host or cells: baculovirus expression system
Procedure, shortened: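 Biotinylated human PI3Kα (baculovirus-expressed, 4.5 nmol/L) pre-incubated 15 min with compound in Tris-HCl pH 7.5, MgCl2, BSA; reaction 60 min at 25° C with 50 μmol/L PIP2 and 100 μmol/L ATP final. ADP quantified by ADP-Glo luminescence; IC50 calculated.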

[2] = molecular target: T1, GST fusion human ERK2 protein; assay: ERK2 enzyme assay (2); conditions: read-out: ERK2 enzyme inhibitory activity (2)
Procedure, shortened: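 IC50 values come from mobility-shift measurement of phosphorylated versus unphosphorylated 5-FAM peptide substrate after EDTA quench. Beforehand, compound and 1.25 nmol/L E. coli-expressed GST–human ERK2 stood 15 min at room temperature (pH 7.5), then 1 mmol/L ATP and 4.25 μmol/L substrate (final) were added for 120 min at 25 °C.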

[3] = 2.5 nmol/L ERK2, ATP 43.1 μmol/L
[4] = 4.5 nmol/L PI3Kα, PIP2 50 μmol/L, ATP 100 μmol/L

T2 sequence (P42336 whole entry): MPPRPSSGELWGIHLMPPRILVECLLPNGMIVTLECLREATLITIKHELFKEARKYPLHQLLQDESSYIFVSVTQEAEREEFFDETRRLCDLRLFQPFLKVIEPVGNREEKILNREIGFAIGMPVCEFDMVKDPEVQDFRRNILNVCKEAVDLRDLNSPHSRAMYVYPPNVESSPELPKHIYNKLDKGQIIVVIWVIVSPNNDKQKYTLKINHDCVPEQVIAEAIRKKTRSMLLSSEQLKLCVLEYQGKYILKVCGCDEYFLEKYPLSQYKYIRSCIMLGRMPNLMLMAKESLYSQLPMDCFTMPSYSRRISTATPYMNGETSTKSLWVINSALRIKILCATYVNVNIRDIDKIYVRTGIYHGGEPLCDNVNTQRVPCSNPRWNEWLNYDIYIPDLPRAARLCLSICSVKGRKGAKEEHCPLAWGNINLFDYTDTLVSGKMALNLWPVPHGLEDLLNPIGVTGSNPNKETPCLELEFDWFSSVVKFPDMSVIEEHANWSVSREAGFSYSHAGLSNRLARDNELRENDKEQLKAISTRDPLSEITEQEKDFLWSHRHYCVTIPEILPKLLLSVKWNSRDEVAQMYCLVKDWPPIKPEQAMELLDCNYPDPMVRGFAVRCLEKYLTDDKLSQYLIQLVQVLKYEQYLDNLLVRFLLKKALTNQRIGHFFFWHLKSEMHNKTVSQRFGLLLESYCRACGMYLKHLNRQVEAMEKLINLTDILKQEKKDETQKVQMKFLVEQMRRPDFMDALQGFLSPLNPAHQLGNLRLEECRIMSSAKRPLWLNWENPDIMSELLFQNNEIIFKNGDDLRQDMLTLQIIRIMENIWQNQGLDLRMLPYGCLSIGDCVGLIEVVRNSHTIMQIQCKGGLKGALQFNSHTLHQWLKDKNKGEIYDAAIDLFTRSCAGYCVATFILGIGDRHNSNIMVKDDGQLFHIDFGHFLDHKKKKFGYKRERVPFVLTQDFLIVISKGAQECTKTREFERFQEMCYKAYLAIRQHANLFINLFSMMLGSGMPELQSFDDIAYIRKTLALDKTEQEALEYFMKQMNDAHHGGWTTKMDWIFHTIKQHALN
T2 sequence (P27986 whole entry partner): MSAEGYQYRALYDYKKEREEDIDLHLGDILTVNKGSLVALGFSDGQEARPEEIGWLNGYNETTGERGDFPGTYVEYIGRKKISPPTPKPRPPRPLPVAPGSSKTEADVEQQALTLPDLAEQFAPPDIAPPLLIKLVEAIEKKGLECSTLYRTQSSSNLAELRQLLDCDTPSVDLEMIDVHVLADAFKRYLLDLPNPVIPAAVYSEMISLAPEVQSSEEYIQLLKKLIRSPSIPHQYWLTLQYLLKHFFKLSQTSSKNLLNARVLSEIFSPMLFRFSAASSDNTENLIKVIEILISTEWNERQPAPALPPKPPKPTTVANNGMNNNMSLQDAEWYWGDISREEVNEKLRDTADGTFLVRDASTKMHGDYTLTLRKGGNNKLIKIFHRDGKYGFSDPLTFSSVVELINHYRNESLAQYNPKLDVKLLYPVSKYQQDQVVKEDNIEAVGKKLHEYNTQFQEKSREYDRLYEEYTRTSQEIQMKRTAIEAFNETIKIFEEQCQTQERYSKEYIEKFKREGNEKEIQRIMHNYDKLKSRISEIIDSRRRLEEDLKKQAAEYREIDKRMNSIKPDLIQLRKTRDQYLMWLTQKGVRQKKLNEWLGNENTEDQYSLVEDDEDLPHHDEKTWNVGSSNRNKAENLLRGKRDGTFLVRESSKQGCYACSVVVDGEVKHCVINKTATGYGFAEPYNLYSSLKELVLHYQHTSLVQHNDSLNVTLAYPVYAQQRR
T1 sequence (P28482 whole entry, the tested form may be a part): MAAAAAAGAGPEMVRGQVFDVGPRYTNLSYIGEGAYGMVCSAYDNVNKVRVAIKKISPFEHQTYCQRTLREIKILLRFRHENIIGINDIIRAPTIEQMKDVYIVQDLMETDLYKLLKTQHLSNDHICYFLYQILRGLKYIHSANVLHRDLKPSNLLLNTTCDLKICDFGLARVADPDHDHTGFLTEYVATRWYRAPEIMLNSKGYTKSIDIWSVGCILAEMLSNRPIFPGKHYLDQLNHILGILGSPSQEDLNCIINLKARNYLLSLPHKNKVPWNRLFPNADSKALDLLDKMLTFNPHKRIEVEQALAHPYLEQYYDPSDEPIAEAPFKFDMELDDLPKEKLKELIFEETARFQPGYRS

Row | IC50 ([1]; ERK2 enzyme assay (1)) [µM] | IC50 (human PI3Kα protein) [µM] | IC50 [1, 3] [µM] | IC50 (human PI3Kα protein; [4]) [µM] | Compound | also measured
1 | < 1 | < 1 | – | – | c1nc2ccc(Nc3nnc(C4CCCC4)s3)nc2cc1-c1cnn(CCCN2CCC2)c1 [Example 0345] | IC50 ([2]; ERK2 enzyme assay (2)): < 1 µM
2 | – | – | < 1 | < 1 | CNS(=O)(=O)c1nnc(Nc2ccc3ncc(-c4cnn(C)c4)cc3n2)s1 [Example 0189, methyl ((5-((7-(1-methyl-1H-pyrazol-4-yl)-1,5-naphthyridin-2-yl)amino)-1,3,4-thiadiazol-2-yl)sulfonyl)amide sodium salt] | IC50 ([2]; 1.25 nmol/L ERK2, ATP 1 mmol/L): < 1 µM
3 | – | – | < 1 | < 1 | CCCc1nn(C)cc1-c1cnc2ccc(Nc3nnc(C4CCCC4)s3)nc2c1 [Example 0112] | IC50 ([2]; 1.25 nmol/L ERK2, ATP 1 mmol/L): < 1 µM
4 | < 1 | – | – | – | Cn1cc(-c2cc3nc(Nc4nnc(C5CCCC5)s4)ccc3nc2Cl)cn1 [Example 0349, N-(6-chloro-7-(1-methyl-1H-pyrazol-4-yl)-1,5-naphthyridin-2-yl)-5-cyclopentyl-1,3,4-thiadiazole-2-amine] | IC50 ([2]; ERK2 enzyme assay (2)): 1 to 10 µM
5 | < 1 | – | – | – | Cn1cc(-c2cnc3ccc(Nc4nnc(C5CCCCC5)s4)nc3c2)cn1 [Example 0217, 5-Cyclohexyl-N-(7-(1-methyl-1H-pyrazol-4-yl)-1,5-naphthyridin-2-yl)-1,3,4-thiadiazole-2-amine] | IC50 ([2]; ERK2 enzyme assay (2)): < 1 µM
6 | – | – | < 1 | – | Cn1cc(-c2cnc3ccc(Nc4nnc(C5CCCC5)s4)nc3c2)c2cccnc21 [Example 0113] | IC50 ([2]; 1.25 nmol/L ERK2, ATP 1 mmol/L): < 1 µM
7 | – | – | < 1 | – | CCCc1nnc(Nc2ccc3ncc(-c4cnn(C)c4)cc3n2)s1 [Example 0169, N-(7-(1-methyl-1H-pyrazol-4-yl)-1,5-naphthyridin-2-yl)-5-propyl-1,3,4-thiadiazole-2-amine] | IC50 ([2]; 1.25 nmol/L ERK2, ATP 1 mmol/L): < 1 µM
8 | – | – | < 1 | < 1 | Cc1nnc(Nc2ccc3ncc(N(C)c4cnn(C)c4)cc3n2)s1 [Example 0185, N^7-methyl-N^2-(5-methyl-1,3,4-thiadiazol-2-yl)-N^7-(1-methyl-1H-pyrazol-4-yl)-1,5-naphthyridine-2,7-diamine] | –
9 | < 1 | < 1 | – | – | CC(C)c1cnnc(Nc2ccc3ncc(-c4cnn(Cc5cccnc5)c4)cc3n2)c1 [Example 0376] | –
10 | – | – | < 1 | 1 to 10 | O=C(CO)N1CCN(c2cnc3ccc(Nc4nnc(C5CCCC5)s4)nc3c2)CC1 [Example 0058, 1-(4-(6-((5-cyclopentyl-1,3,4-thiadiazol-2-yl)amino)-1,5-naphthyridin-3-yl)piperazin-1-yl)-2-hydroxyethanone] | –
11 | – | – | 1 to 10 | 1 to 10 | COc1ncccc1Nc1cnc2ccc(Nc3nnc(C4CCCC4)s3)nc2c1 [Example 0077] | –
12 | – | – | < 1 | – | c1cnc2[nH]cc(-c3cnc4ccc(Nc5nnc(C6CCCC6)s5)nc4c3)c2c1 [Example 0111] | IC50 ([2]; 1.25 nmol/L ERK2, ATP 1 mmol/L): < 1 µM
13 | – | – | < 1 | 1 to 10 | Cn1cc(-c2cnc3ccc(Nc4ncc(C5CCCC5)s4)nc3c2)cn1 [Example 0127] | –
14 | < 1 | 1 to 10 | – | – | COc1ccc(-c2ccnc3ccc(Nc4nnc(C(C)C)s4)nc23)cc1 [Example 0272] | –
15 | – | – | 1 to 10 | < 1 | CC(C)c1nnc(Nc2ccc3nccc(Nc4ccnnc4)c3n2)s1 [Example 0008] | –
16 | – | – | 1 to 10 | 1 to 10 | c1ccc(Nc2cnc3ccc(Nc4nnc(C5CCCC5)s4)nc3c2)cc1 [Example 0200, N^2-(5-cyclopentyl-1,3,4-thiadiazol-2-yl)-N^7-phenyl-1,5-naphthyridine-2,7-diamine] | –
17 | < 1 | < 1 | – | – | CC(C)c1nnc(Nc2ccc3ncc(-c4cn(C)nc4-c4cnn(C)c4)cc3n2)s1 [Example 0477] | –
18 | – | – | 1 to 10 | 10 to 50 | CCOC(=O)C1CCN(c2cnc3ccc(Nc4nnc(C5CCCC5)s4)nc3c2)CC1 [Example 0057] | –
19 | – | – | < 1 | < 1 | c1n[nH]cc1Nc1cnc2ccc(Nc3nnc(C4CCCC4)s3)nc2c1 [Example 0175, N^2-(5-cyclopentyl-1,3,4-thiadiazol-2-yl)-N^7-(1H-pyrazol-4-yl)-1,5-naphthyridine-2,7-diamine] | –
20 | < 1 | < 1 | – | – | c1ccc(-c2cnnc(Nc3ccc4ncc(-c5cnn(CCCN6CCCC6)c5)cc4n3)c2)cc1 [Example 0297, N-(5-phenylpyridazin-3-yl)-7-(1-(3-(pyrrolidin-1-yl)propyl)-1H-pyrazol-4-yl)-1,5-naphthyridine-2-amine] | –
21 | < 1 | 1 to 10 | – | – | COCCNc1cnc2ccc(Nc3nnc(C4CCCC4)s3)nc2c1 [Example 0308] | –

Row | IC50 ([1]; ERK2 enzyme assay (1)) [µM] | IC50 (human PI3Kα protein) [µM] | IC50 [1, 3] [µM] | IC50 (human PI3Kα protein; [4]) [µM] | Compound | also measured
22 | – | – | < 1 | 1 to 10 | Cc1nnc(Nc2ccc3ncc(Nc4cnn(C)c4)cc3n2)s1 [Example 0184] | –
23 | – | – | < 1 | 1 to 10 | c1nc2ccc(Nc3nnc(C4CCCC4)s3)nc2cc1N1CCNCC1 [Example 0055] | –
24 | < 1 | < 1 | – | – | c1cnc(Nc2cnc3ccc(Nc4nnc(C5CCCC5)s4)nc3c2)cn1 [Example 0209] | –
25 | < 1 | < 1 | – | – | CC(C)c1cnnc(Nc2ccc3ncc(-c4cnn(CCCN5CCC5)c4)cc3n2)c1 [Example 0371] | –
26 | – | – | < 1 | 1 to 10 | COC[C@H]1CCCN1c1cnc2ccc(Nc3nnc(C4CCCC4)s3)nc2c1 [Example 0062] | –
27 | < 1 | 1 to 10 | – | – | Cn1cc(-c2cnc3ccc(Nc4nnc[nH]4)nc3c2)cn1 [Example 0300, 7-(1-Methyl-1H-pyrazol-4-yl)-N-(4H-1,2,4-triazol-3-yl)-1,5-naphthyridine-2-amine] | –
28 | 1 to 10 | < 1 | – | – | CC(C)c1nnc(Nc2ccc3nccc(-c4cnn(CCN5CCOCC5)c4)c3n2)s1 [Example 0274] | –
29 | < 1 | < 1 | – | – | CC(C)(O)Cc1nnc(Nc2ccc3ncc(-c4cnn(CCCN5CCCC5)c4)cc3n2)s1 [Example 0260] | –
30 | – | – | < 1 | < 1 | Cn1cc(-c2cnc3ccc(Nc4nnc(NS(C)(=O)=O)s4)nc3c2)cn1 [Example 0187, N-(5-((7-(1-methyl-1H-pyrazol-4-yl)-1,5-naphthyridin-2-yl)amino)-1,3,4-thiadiazol-2-yl)methane sulfonamide] | –
31 | – | – | < 1 | 1 to 10 | CC(C)Oc1cncc(Nc2cnc3ccc(Nc4nnc(C5CCCC5)s4)nc3c2)c1 [Example 0100] | –
32 | 1 to 10 | – | – | – | CCOc1nc2ccc(Nc3nnc(C4CCCC4)s3)nc2cc1-c1cnn(C)c1 [Example 0357, 5-Cyclopentyl-N-(6-ethoxy-7-(1-methyl-1H-pyrazol-4-yl)-1,5-naphthyridin-2-yl)-1,3,4-thiadiazole-2-amine] | IC50 ([2]; ERK2 enzyme assay (2)): 1 to 10 µM
33 | < 1 | 1 to 10 | – | – | CN1CC=C(c2cnc3ccc(Nc4nnc(C5CCCC5)s4)nc3c2)CC1 [Example 0333, 5-cyclopentyl-N-(7-(1-methyl-1,2,3,6-tetrahydropyridin-4-yl)-1,5-naphthyridin-2-yl)-1,3,4-thiadiazole-2-amine] | –
34 | < 1 | 10 to 50 | – | – | c1ccc(Nc2cnc3ccc(Nc4nnc(C5CCCC5)s4)nc3c2)nc1 [Example 0206] | –
35 | < 1 | 1 to 10 | – | – | O[C@H]1CCN(c2cnc3ccc(Nc4nnc(C5CCCC5)s4)nc3c2)C1 [Example 0314] | –
36 | < 1 | < 1 | – | – | CCc1nn(CCCN2CCOCC2)cc1-c1cnc2ccc(Nc3cc(C(C)C)cnn3)nc2c1 [Example 0385, 7-(3-ethyl-1-(3-morpholinopropyl)-1H-pyrazol-4-yl)-N-(5-isopropylpyridazin-3-yl)-1,5-naphthyridine-2-amine] | –
37 | < 1 | < 1 | – | – | CC(C)c1cnnc(Nc2ccc3ncc(-c4cnn(CCCN5CCCC(C#N)C5)c4)cc3n2)c1 (stereo not drawn) [Example 0379, 1-(3-(4-(6-((5-Isopropylpyridazin-3-yl)amino)-1,5-naphthyridin-3-yl)-1H-pyrazol-1-yl)propyl)piperidine-3-carbonitrile] | –
38 | < 1 | < 1 | – | – | CC(C)c1cnnc(Nc2ccc3ncc(N4CCOCC4)cc3n2)c1 [Example 0392, N-(5-isopropylpyridazin-3-yl)-7-morpholino-1,5-naphthyridine-2-amine] | –
39 | 1 to 10 | 1 to 10 | – | – | CC(C)c1nnc(Nc2ccc3nccc(N4CCOCC4)c3n2)s1 [Example 0286, 5-isopropyl-N-(8-morpholino-1,5-naphthyridin-2-yl)-1,3,4-thiadiazole-2-amine] | –
40 | – | – | < 1 | < 1 | Cc1ncc(Nc2cnc3ccc(Nc4nnc(C5CCCC5)s4)nc3c2)cc1-n1nccn1 [Example 0074] | –
41 | < 1 | < 1 | – | – | CC(C)c1cnnc(Nc2ccc3ncc(-c4cnn(CCn5ccnc5)c4)cc3n2)c1 [Example 0380, 7-(1-(2-(1H-imidazol-1-yl)ethyl)-1H-pyrazol-4-yl)-N-(5-isopropylpyridazin-3-yl)-1,5-naphthyridine-2-amine] | –
42 | < 1 | < 1 | – | – | c1nc2ccc(Nc3nnc(C4CCCC4)s3)nc2cc1NC1CCOC1 (stereo not drawn) [Example 0319, N^2-(5-cyclopentyl-1,3,4-thiadiazol-2-yl)-N^7-(tetrahydrofuran-3-yl)-1,5-naphthyridine-2,7-diamine] | –

— patent US9783536B2, “Nitrogen-containing heterocyclic compound or salt thereof” (FUJIFILM Corporation, priority 2013, dated 2017)
